Entries after “also recorded” stand apart in the source; their conditions may differ. Like-named read-outs stand apart in the source and are kept apart here. Marks after values point to notes of the source that are not given here.

The test system of test [1] is advanced glycation end products (AGEs). The test can be described thus: Methylglyoxal-bovine serum albumin assay investigating AGE formation. In kind it is biochemical. To be noted: methylglyoxal-BSA, 37°C 24 h, mean ± RSD. On the procedure:
Bovine serum albumin (50 mg/mL) was incubated with methylglyoxal (100 mM) in sodium phosphate buffer (0.1 M, pH 7.4) in the presence of various concentrations of the compounds (including a control) at 37°C for 24 h. Then the fluorescent intensity was measured at an excitation wavelength of 355 nm and an emission wavelength of 460 nm with a luminescence spectrometer LS50B (PerkinElmer Ltd., Buckinghamshire, England). […] All reagents and samples were sterilized by filtration through […] membrane filters.

Test [2] can be described thus: DPPH free radical scavenging capacity. As to conditions: concentrations 15, 30, 75 μg/mL, mean ± RSD. On the procedure: DPPH, a stable free radical, was used to determine the free radical-scavenging activity of the extracts. Briefly, a 0.32 mM DPPH solution in MeOH were prepared, and 180 μL of this solution was mixed with 30 μL of each sample at concentrations of 0.05–1.0 mg/mL in DMSO. After 20 min of incubation in the dark, the decrease in the absorbance of the solution was measured at 570 nm on a microplate reader (EL800 Universal Microplate reader, Bio-Tek instruments, Winooski, VT, USA). DPPH radical-scavenging activity was expressed as the percentage inhibition (%) of DPPH in this assay system and was calculated as (1 − B/A) × 100, where A and B are the activities of DPPH without and with the test material, respectively.
(In general: DPPH is a stable violet radical that fades when it is reduced.)

Test [3] relates to sorbitol accumulation in rat lens. The test can be described thus: Lens culture and intracellular sorbitol measurement (ex vivo, high glucose). In kind it is cell-based. As to conditions: for Sorbitol content (mg)/lens wet weight (g): rat lens cultured 6 d in medium with 30 mM glucose, control by G 1.47 ± 0.02; for inhibition at 5 µg/mL: read-out: Inhibition (%) of sorbitol accumulation in rat lens. The procedure: Lens isolated from 10-week old Sprague-Dawley rats were cultured for 6 d in TC-199 medium containing 15% fetal bovine serum, 100 units/mL penicillin, and 0.1 mg/mL streptomycin, under sterile conditions and an atmosphere of 5% CO2 and 95% air at 37°C. Samples were dissolved in DMSO. The lens were divided into three groups (each group n = 3) and cultured in medium containing 30 mM glucose and RLAR-active compounds. Each lens was placed in a well containing 2.0 mL medium. Sorbitol was identified by HPLC after its derivatization by reaction with benzoic acid to form a fluorescent compound [25].

Test [4] has as its target T1, rat lens aldose reductase (RLAR) (Rattus norvegicus, UniProt P07943).
T1 construct: The supernatant was collected and used as RLAR; from tissue; host or cells: lens of Sprague-Dawley rats (supernatant of the homogenate after 10,000g)
To be noted: cited from earlier work; for IC50: compounds isolated from other plant sources, read-out: RLAR inhibitory activity (reported data).

The target of test [5] is T1, rat lens aldose reductase (RLAR). As to the kind of experiment: Determination of RLAR inhibition (NADPH absorbance decrease at 340 nm, DL-glyceraldehyde substrate). In kind it is biochemical. To be noted: crude RLAR homogenate; inhibitor concentrations 1, 5, 10 μg/mL; mean ± RSD; NI: no inhibition. The procedure: Crude RLAR was prepared as follows: lenses were removed from Sprague-Dawley rats (weighing 250–280 g) and frozen at −70°C until use. Noncataractous transparent lenses were pooled and a homogenate was prepared in 0.1 M phosphate buffered saline (pH 6.2). The RLAR homogenate was then centrifuged at 10,000g for 20 min at 4°C in a refrigerated centrifuge. The supernatant was collected and used as RLAR [22].
A total of 531 μL of 0.1 M potassium buffer (pH 7.0), 90 μL of NADPH solution (1.6 mM in potassium buffer), 90 μL of RLAR homogenate (6.5 U/mg), 90 μL of ammonium sulfate solution (4 M in potassium buffer), and 90 μL of DL-glyceraldehyde (25 mM in potassium buffer) were mixed with 9 μL of different concentrations of samples (1–0.1 mg/mL in DMSO, less than 1% in total mixture) in a cuvette, and the activity of RLAR was assessed spectrophotometrically by measuring the decrease in NADPH absorbance at 340 nm for 3 minutes using a spectrophotometer (SECOMAM, Ales Cedex, France).

The mark [6] stands for this setting: concentrations 10, 25, 50 μg/mL, NI: no inhibition.
The mark [7] stands for this setting: sample 5 μg/mL, mean ± SD (n = 3).
Setting [8] is: rat lens cultured in 30 mM glucose, sample 5 μg/mL, mean ± SD (n = 3).

`N=C(N)NN` [Aminoguanidine, aminoguanidine, reference compound]: in test [1] (concentrations 20, 100, 200 μg/mL), the “IC50 AGEs” value is 109.10 ± 3.47^a μg/mL.

For orientation: inhibition means the share of the control response that was lost under treatment. Turning to `O=c1cc(-c2ccc(O)cc2)oc2cc(O[C@@H]3O[C@H](CO)[C@@H](O)[C@H](O)[C@H]3O)cc(O)c12` [Compound 1, apigenin-7-O-β-D-glucoside], the IC50 in test [1] (setting [6]) is > 97 µM; in test [2] (NI: no inhibition) it was > 250 µM; in test [4], 23 µM. For the same molecule, the “Sorbitol content (mg)/lens wet weight (g)” value (from here on “Sorbitol content”) in test [3] (setting [7]) was 0.72 ± 0.01^c mg/g. Further, the inhibition at 5 µg/mL in test [3] (setting [8]) amounted to 51 ± 1.68%.

In the case of `O=c1cc(-c2ccc(O)c(O)c2)oc2cc(O[C@@H]3O[C@H](CO)[C@@H](O)[C@H](O)[C@H]3O)cc(O)c12` [Compound 2, luteolin-7-O-β-D-glucoside], the IC50 is > 97 µM in test [1] (setting [6]) and 0.99 µM in test [4]. For the same molecule, in test [3] (setting [7]), the “Sorbitol content” value is 0.07 ± 0.01^a mg/g. Also, in test [3] (setting [8]), the inhibition at 5 µg/mL came to 95.2 ± 8.18%.

Turning to `COc1cc2oc(-c3ccc(O)cc3)c(OC)c(=O)c2c(O)c1OC` [Compound 3, penduletin], in test [5], the IC50 is > 28 µM and the “IC50 RLAR” value was “inactive; also recorded: did not show inhibitory activities”. In test [1] (setting [6]), the IC50 was > 97 µM and the “IC50 AGEs” value is “did not show inhibitory activities”. Besides, in test [2] (NI: no inhibition), the IC50 was > 208 µM and the “IC50 DPPH” value is on record as “almost no effect”.

`O=C(O)[C@H]1O[C@@H](Oc2cc(O)c3c(=O)cc(-c4ccc(O)cc4)oc3c2)[C@H](O)[C@@H](O)[C@@H]1O` [Compound 5, apigenin-7-O-β-D-glucuronide]: in test [1] (setting [6]), the IC50 is > 97 µM. Further, in test [3] (setting [7]), the “Sorbitol content” value is recorded as 0.29 ± 0.01^b mg/g. Also, in test [3] (setting [8]), the inhibition at 5 µg/mL worked out at 80.3 ± 2.78%.

As for `O=C(O)[C@H]1O[C@@H](Oc2cc(O)c3c(=O)cc(-c4ccc(O)c(O)c4)oc3c2)[C@H](O)[C@@H](O)[C@@H]1O` [Compound 6, luteolin-7-O-β-D-glucuronide], the “Sorbitol content” value in test [3] (setting [7]) is 0.12 ± 0.01^a mg/g. Moreover, the inhibition at 5 µg/mL in test [3] (setting [8]) worked out at 91.8 ± 6.74%.

Consider `O=C(C=Cc1ccc(O)c(O)c1)OC1CC(O)(C(=O)O)CC(OC(=O)C=Cc2ccc(O)c(O)c2)C1O` (stereo not drawn) [Compound 7, 3,5-O-di-caffeoylquinic acid], for which the IC50 in test [1] (setting [6]) is > 97 µM. In addition, the inhibition at 5 µg/mL in test [3] (Rattus norvegicus) turned out to be 86.4 ± 4.28%. Further, the “Sorbitol content” value in test [3] (setting [7]) is listed as 0.20 ± 0.01^a mg/g.

As to `O=c1cc(-c2ccc(O)cc2)oc2cc(O)c(O)c(O)c12` [Compound 8, 6-hydroxyapigenin], in test [5], the IC50 is > 28 µM and the “IC50 RLAR” value was “inactive; also recorded: did not show inhibitory activities”. In test [1] (setting [6]), the IC50 is > 97 µM and the “IC50 AGEs” value is given as “did not show inhibitory activities”. Also, in test [2] (NI: no inhibition), the IC50 was > 208 µM and the “IC50 DPPH” value is given as “almost no effect”.

`O=c1cc(-c2ccc(O)cc2)oc2cc(O)cc(O)c12` [Compound 9, apigenin]: the IC50 in test [1] (setting [6]) is > 97 µM. Besides, in test [3] (setting [7]), the “Sorbitol content” value is 0.19 ± 0.01^a mg/g. Also, the inhibition at 5 µg/mL in test [3] (setting [8]) was 87.1 ± 4.48%.

For `O=c1cc(-c2ccc(O)c(O)c2)oc2cc(O)cc(O)c12` [Compound 10, luteolin], the “Sorbitol content” value in test [3] (setting [7]) was 0.12 ± 0.01^a mg/g. Moreover, the inhibition at 5 µg/mL in test [3] (setting [8]) came out at 91.8 ± 6.87%.

Take `O=C1O[C@H]([C@@H](O)CO)C(O)=C1O` [L-Ascorbic acid, reference compound]: in test [2] (three independent experiments in duplicate), the “IC50 DPPH” value is recorded as 6.60 ± 0.33^a μg/mL.

With `O=c1c(O)c(-c2ccc(O)c(O)c2)oc2cc(O)cc(O)c12` [Quercetin, quercetin, reference compound], in test [3] (setting [7]), the “Sorbitol content” value is 0.21 ± 0.01^a mg/g. Also, the inhibition at 5 µg/mL in test [3] (setting [8]) amounted to 85.7 ± 3.23%.

With `O=c1cc(-c2ccc(O)c(O)c2)oc2cc(O)cc(O[C@@H]3O[C@H](CO)[C@@H](O)[C@H](O)[C@H]3O)c12` [luteolin-5-O-β-D-glucopyranoside, reference compound], the “Inhibitory activity on RLAR relative to its precursor (luteolin)” value in test [4] (isolated from Cirsium maackii) is ~1.58 times.

(Values after PMC5914092, “Evaluation of Aldose Reductase, Protein Glycation, and Antioxidant Inhibitory Activities of Bioactive Flavonoids in Matricaria recutita L. and Their Structure-Activity Relationship” (Journal of Diabetes Research, 2018).)
